Source: patent US20120021079A1, “Garcinia Mangostana L. and Iridoid Based Formulations” (priority 2010, published 2012)

Tests used:
E. coli PQ37 [1] = experiment: Anti-genotoxicity test (SOS-chromotest with 4NQO, Example Three); format: cell-based; conditions: for induction factor of 4NQO plus iridoid versus vehicle blank: 250 μg mL^−1 iridoid plus 1.25 μg mL^−1 4NQO; for Induction factor: 250 μg ml^−1 DAA or AA together with 1.25 μg ml^−1 4NQO, E. coli PQ37
Experimental: The primary DNA damage test was performed again, similar to the method described above. […] Induction factors were calculated in the same manner as described above.

[2] = Intra- and inter-day precision and stability assays of iridoids by HPLC-PDA; format: physicochemical; conditions: 3 consecutive days, HPLC sample solutions
Experimental: The limits of detection (LOD) and quantitation (LOQ) were defined as the lowest concentrations of analytes in a sample that can be detected and quantified. These LOD and LOQ limits were determined on the basis of signal-to-noise ratios (S/N) of 3:1 and 10:1, respectively. The working solutions of standards 1 and 2 for LOD and LOQ were prepared by diluting them sequentially. The intra- and inter-day precision assays, as well as stability tests were performed by following the method applied to the sample analysis for 3 consecutive days. Accuracy of the method (recovery) was assessed by the recovery percentage of iridoids 1 and 2 in the spiked samples. […] The recovery percentage was calculated using the ratio of concentration detected (actual) to those spiked (theoretical). Variation was evaluated by the relative standard deviation (RSD) of triplicate injections in the HPLC experiments.
The limits of detection (LOD) and quantitation (LOQ) were defined as the lowest concentrations of analytes in a sample that can be detected and quantified. These LOD and LOQ limits were determined on the basis of signal-to-noise ratios (S/N) of 3:1 and 10:1, respectively. […] Repeatability is the degree of agreement between results, when experimental conditions are maintained as constant as possible, and is expressed as the relative standard deviation (RSD) of replicates. […]

E. coli PQ37 [3] = format: cell-based; conditions: 250 ug mL^−1 iridoid plus 1.25 ug mL^−1 4NQO; blank = 1
Experimental: The SOS-chromotest in E. coli PQ37 was used to determine the potential for iridoids in noni fruit from French Polynesia to prevent primary DNA damage. […] Replicate samples were evaluated. […] Following incubation with the samples, 5-bromo-4-chloro-3-indolyl-β-D-galactopyranoside was added to the wells to detect β-galactosidase enzyme activity, which is induced during SOS repair of damaged DNA. The samples were again incubated for 90 minutes and the absorbances of the samples, blank and positive control were measured at 620 nm with a microplate reader. The β-galactosidase enzyme activity induction factor of each material was calculated by dividing the absorbance of the sample at 620 nm by that of the blank, while also correcting for cell viability.

| SMILES | induction factor of 4NQO plus iridoid versus vehicle blank (E. coli PQ37 [1]) | Induction factor (E. coli PQ37 [1]) | stability during investigation period [2] | induction factor (mean±standard deviation) (E. coli PQ37 [3]) |
| --- | --- | --- | --- | --- |
| CC(=O)OCC1=C[C@H](O)[C@@H]2C(C(=O)O)=CO[C@@H](O[C@@H]3O[C@H](CO)[C@@H](O)[C@H](O)[C@H]3O)[C@H]12 [AA, asperulosidic acid] | no statistical difference from that of the vehicle blank | 1.06 ± 0.03 | stable during investigation period |  |
| O=C(O)C1=CO[C@@H](O[C@@H]2O[C@H](CO)[C@@H](O)[C@H](O)[C@H]2O)[C@@H]2C(CO)=C[C@H](O)[C@H]12 [DAA, deacetylasperulosidic acid] | no statistical difference from that of the vehicle blank | 1.08 ± 0.12 | stable during investigation period | 0.98±0.02 |
